According to US20060094674A1, “Combination of mtor inhibitor and a tyrosine kinase inhibitor for the treatment of neoplasms” (priority 2002, published 2006):
Like-named read-outs stand apart in the source and are kept apart here.

Key:
[1] = test system: p70 S6K
Procedure: (§1) Cells were lysed in a buffer containing Tris-HCl (50 mM, pH 8.0), NaCl (150 mM), NP40 (1% v/v), NaF (10 mM), 2 mM sodium orthovanadate and a cocktail of protease inhibitors, as described previously (Gu et al., Mol. Cell. Biol. 20:7109 (2000)). Cell lysates containing equivalent amounts of protein ([…]) were loaded and separated by SDS-PAGE. Immunoblotting was performed using phospho-specific antibodies reactive with Thr389 of p70 S6K, Ser65 of 4E-BP1 or Thr202/Tyr204 of p44/42 Erk (Cell Signaling Technology, Beverly, Ma.). Detection was by enhanced chemiluminescence (ECL). To control for equal loading, blots were reprobed with antibodies that detect total Erk2 or p70 S6K (Santa Cruz Biotechnology).
(§2) Cell lysates were prepared and equal amounts (50 μg) of protein were resolved by SDS-PAGE followed by immunoblot analysis with the indicated phospho-specific antibodies. To control for loading, the blots were stripped and reprobed with anti-Erk2 antibodies.

[2] = test system: PTEN-positive human prostate cancer cells (CWR22); experiment: Proliferation (cell number, hemocytometer) of CWR22 cells; type: cell-based; conditions: rapamycin at indicated concentrations alone or with Imatinib 2 μg/ml; 7 days
Procedure: PTEN-positive human prostate cancer cells (CWR22) were seeded at 30,000 cells per 6-well cluster (35 mm plate). […] Media was changed every 2 days with fresh drugs. After 7 days, cell number was determined by hemocytometer (see FIG. 9).

[3] = test system: murine BCR/ABL disease model; experiment: Survival in mouse model of CML (BCR/ABL bone marrow transplantation); type: in vivo, BALB/C mice
Procedure: BALB/C donor mice were primed with intraperitoneal injection of 5′ fluorouracil (150 mg/kg). After 5 days, bone marrow cells were collected and transduced with MSCV p210 (BCR/ABL)-IRES-GFP viruses by two rounds of spinfection. After second round of transduction, cells were resuspended in Hanks balanced salt solution and injected (1×10^6 cells/0.5 ml) into the lateral tail vein of lethally irradiated (2×450 cGy) female recipient BALB/C mice. […] All animals in the trial received two gavage treatments and one IP treatment per 24 hours. Treatment was started from day 9 after bone marrow transplantation (BMT) and continued until the mice died. The log rank statistics were used to attach a significance level to the difference in the survival curves.
These mice were censored from the statistical analysis of survival. Peripheral blood was collected from the retroorbital cavity using a heparinized glass capillary. Blood smears were stained with Wright and Giemsa. Manual and automated (ADIVA 120 Hematology system, Bayer) total and differential blood cell counts were performed, as well as histopathologic exam of relevant organs (spleen, liver, heart, lungs, intestine, hindlimb bones, and kidneys). […]

[4] = test system: PTEN-negative human prostate cancer cells (LnCaP); experiment: Proliferation (cell number, hemocytometer) of LnCaP cells; type: cell-based; conditions: rapamycin at indicated concentrations alone or with Imatinib 2 μg/ml; 7 days
Procedure: PTEN-negative human prostate cancer cells (LnCaP) were seeded at 30,000 cells per 6-well cluster (35 mm plate). […] Media was changed every 2 days with fresh drugs. After 7 days, cell number was determined by hemocytometer (see FIG. 10).

[5] = test system: Erk1/2 kinases; conditions: 18 hours; indicated concentrations
Procedure: as §1, §2

[6] = test system: K562 cells; experiment: [3H]-thymidine proliferation assay, K562 cells; type: cell-based, human; conditions: rapamycin alone, 5 nM; 60 hours
[7] = test system: Ba/F-BCR/ABL T315I cells; experiment: [3H]-thymidine proliferation assay, Imatinib-resistant Ba/F-BCR/ABL T315I cells; conditions: 48 hours
[8] = test system: 4E-BP1; experiment: Immunoblot of 4E-BP1 phosphorylation in Ba/F-FLT3-ITD cells; type: cell-based
Procedure: as §1
The blots were reprobed for p70 S6 kinase and Erk2, respectively, to ensure equivalent loading.

[9] = test system: 4E-BP1; conditions: Imatinib 0.5-4 μM or rapamycin 5 nM alone, or combined
Procedure: as §1

[10] = test system: Erk1/2 kinases; conditions: 18 hours; indicated concentrations; remark: listed apart in the source
Procedure: as §1, §2

[11] = test system: p70 S6K; conditions: rapamycin 0.5-5 nM; 18 hours
Procedure: as §1, §2

[12] = test system: BCR/ABL-transformed primary B lymphoblasts; conditions: 24 hours; rapamycin 0.25-10 nM alone; Imatinib 0.25-4 μM alone or in combination with rapamycin 2 nM
[13] = test system: BCR/ABL-transformed primary B-lymphoblast cells; conditions: 24 hours, Imatinib 1 μM, Rapamycin 10 nM; for % of viable cells in phase: G1 / % of viable cells in phase: G2/M / % of viable cells in phase: S / Total % Apoptotic: UO126 5 μM; for Total % Apoptotic: sub-G1 DNA content
Procedure: For cell cycle and apoptosis assays, live cells from randomly growing BCR/ABL-transformed B-lymphoblasts were isolated using Histopaque (Sigma). After washing twice, the cells were resuspended in regular growth medium (RPMI-containing 20% FCS and 50 μM 2-mercaptoethanol), exposed to inhibitors at the indicated concentrations for 24 hours, harvested and fixed in 70% ethanol, for 3 hours at −20 C. Fixed cells were stained with propidium iodide, and cell cycle parameters were analyzed by using FACScan and Modfit LT software.
3 million cells in media as described above and treated with the indicated drugs or left untreated for 24 hours, were fixed, stained with propidium iodide and subject to flow cytometry for cell cycle analysis.

[14] = test system: Ba/F-FLT3-ITD F691I cells
Procedure: (§3) Cell proliferation was measured by a [^3H]-thymidine incorporation assay (see FIG. 6C).

[15] = achieved in transplant patients; cited from earlier work
[16] = test system: Ba/F-BCR/ABL WT cells; conditions: rapamycin 5 nM; 48 hours of exposure
[17] = test system: bone marrow cells transduced with BCR/ABL-expressing retroviruses; experiment: BCR/ABL-evoked myeloid colony formation assay; type: cell-based, mice; conditions: rapamycin 2 nM, Imatinib 0.5 μM, UO126 2 μM alone, or all three combined; 10 days
[18] = test system: Ba/F-FLT3-ITD F691I cells; conditions: 48 hours; PKC412 10 nM alone; two-drug combinations at indicated concentrations
Procedure: as §3

Compound: Rapamycin
- inhibition of p70 S6K phosphorylation ([1]; rapamycin 5 nM): totally inhibited p70 S6K phosphorylation
- inhibition of p70 S6K activation ([1]; rapamycin 0.5-5 nM, 18 hours): almost completely inhibited activation of p70 S6K
- inhibitory effect on proliferation of prostate cancer cells [2]: significant inhibitory effect on proliferation
- survival versus double placebo, p (log rank) ([3]; Rapamycin 7.0 mg/kg/day intraperitoneal or Imatinib 70 mg/kg/day oral gavage, each plus placebo): 0.04
- survival ([3]; Rapamycin 7.0 mg/kg/day intraperitoneal, Imatinib 70 mg/kg/day oral gavage, from day 9 after BMT): survived longer than those treated with double placebo
- inhibitory effect on proliferation of prostate cancer cells [4]: significant inhibitory effect on proliferation
- inhibition of Erk activation [5]: did not inhibit Erk activation
- inhibition of [3H]-thymidine incorporation [6]: ~25%
- inhibition of proliferation ([7]; rapamycin 5 nM alone): about 70%
- resistance of 4E-BP1 phosphorylation to rapamycin relative to p70 S6K [8]: > 10 fold
- inhibition of 4E-BP1 phosphorylation [9]: partial inhibition of 4E-BP1phosphorylation
- inhibition of Erk activation [10]: did not inhibit Erk activation
- inhibition of p70 S6K activation [11]: almost completely inhibited activation of p70 S6K
- inhibition of cell proliferation ([3H]-thymidine incorporation) [12]: inhibited the proliferation of these cells at doses significantly below typical serum levels
- % of viable cells in phase: G1 [13]: 79.9%
- % of viable cells in phase: G2/M [13]: 1.8%
- % of viable cells in phase: S [13]: 18.3%
- Total % Apoptotic [13]: 8.6%
- effect on cell cycle and apoptosis ([13]; alone or combined): G1 arrest, but no significant apoptosis
- inhibition [14]: 68%
- typical serum levels [15]: 5 to 15 nM
- inhibition of proliferation [16]: ~60%

Compound: N#CC(=C(/N)Sc1ccccc1N)/C(C#N)=C(/N)Sc1ccccc1N [UO126]
- inhibition of BCR/ABL-evoked myeloid colony formation [17]: 16%
- inhibition of proliferation ([7]; UO126 5 μM, Imatinib 0.5 μM, rapamycin 5 nM, alone or in combinations): only modest inhibitory effects
- % of viable cells in phase: G1 [13]: 44.6%
- % of viable cells in phase: G2/M [13]: 3.8%
- % of viable cells in phase: S [13]: 51.6%
- Total % Apoptotic [13]: 4.6%

Compound: CO[C@@H]1[C@H](N(C)C(=O)c2ccccc2)C[C@H]2O[C@]1(C)n1c3ccccc3c3c4c(c5c6ccccc6n2c5c31)C(=O)NC4 [PKC412]
- effect on cell proliferation [18]: almost no effect
